Experimental data: patent US9115101B2 (Genentech, Inc., priority 2012, dated 2015)
Read-outs that look alike come from different tables or passages of the source.

Biological target: T1, RORc ligand binding domain (Homo sapiens, UniProt P51449)
T1 construct: host or cells: E. coli
T1 sequence (P51449 269-508 limits assumed): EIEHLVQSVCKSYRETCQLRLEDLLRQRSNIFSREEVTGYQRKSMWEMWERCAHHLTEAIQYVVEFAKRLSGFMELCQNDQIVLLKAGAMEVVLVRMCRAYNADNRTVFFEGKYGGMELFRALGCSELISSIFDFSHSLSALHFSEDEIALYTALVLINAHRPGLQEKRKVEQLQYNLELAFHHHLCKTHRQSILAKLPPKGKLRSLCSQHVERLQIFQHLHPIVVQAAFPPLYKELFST
Assay: In Vitro RORc Ligand Binding Assay (25-[3H]hydroxycholesterol radioligand filtration)
Settings: read-out: RORc IC50

[1] = In Vitro RORc Ligand Binding Assay, Table 4

SMILES	IC50 [nM]	IC50 [1] [nM]
C[C@H]1CCC(c2ccccc2)S(=O)(=O)N1Cc1ccc(N2CCn3c(cnc3C#N)C2)cc1F (some centres unmarked)	182	
C[C@H]1CCC(c2ccccc2)S(=O)(=O)N1Cc1ccc(N2CCC(N3CCCC3=O)CC2)cc1F (some centres unmarked)	878	
CC(=O)N1CCN(c2ccc(CN3CCCC(c4ccccc4)S3(=O)=O)c(F)c2)CC1 (single isomer, unassigned) [Example 1]		247
CC(=O)N1CCN(c2ccc(CN3CCCC(c4ccccc4)S3(=O)=O)c(F)c2)CC1 (single isomer, unassigned) [Example 2]		157
CC(=O)N1CCN(c2ccc(CN3CCCC(c4ccc(F)cc4)S3(=O)=O)c(F)c2)CC1 (single isomer, unassigned) [Example 11, 1-(4-{3-Fluoro-4-[6-(4-fluoro-phenyl)-1,1-dioxo-[1,2]thiazinan-2-ylmethyl]-phenyl}-piperazin-1-yl)-ethanone]		125
CC(=O)N1CCN(c2ccc(CN3CCCC(c4ccc(F)cc4)S3(=O)=O)c(F)c2)CC1 (single isomer, unassigned) [Example 12, 1-(4-{3-Fluoro-4-[6-(4-fluoro-phenyl)-1,1-dioxo-[1,2]thiazinan-2-ylmethyl]-phenyl}-piperazin-1-yl)-ethanone]		241
CC(=O)N1CCN(c2ccc(CN3C(C)(C)CCC(c4ccccc4)S3(=O)=O)c(F)c2)CC1 (single isomer, unassigned) [Example 13, 1-{4-[4-(3,3-Dimethyl-1,1-dioxo-6-phenyl-[1,2]thiazinan-2-ylmethyl)-3-fluoro-phenyl]-piperazin-1-yl}-ethanone]		142
CC(=O)N1CCN(c2ccc(CN3C(C)(C)CCC(c4ccccc4)S3(=O)=O)c(F)c2)CC1 (single isomer, unassigned) [Example 14, 1-{4-[4-(3,3-Dimethyl-1,1-dioxo-6-phenyl-[1,2]thiazinan-2-ylmethyl)-3-fluoro-phenyl]-piperazin-1-yl}-ethanone]		1900
CC(=O)N1CCN(c2ccc(CN3[C@H](C)CCC(c4ccccc4)S3(=O)=O)c(F)c2)CC1 (single isomer, unassigned) [Example 19]		2800
CC(=O)N1CCN(c2ccc(CN3CCOCC(c4ccccc4)S3(=O)=O)c(F)c2)CC1 (single isomer, unassigned) [Example 22, 1-{4-[4-(4,4-Dioxo-3-phenyl-[1,4,5]oxathiazepan-5-ylmethyl)-3-fluoro-phenyl]-piperazin-1-yl}-ethanone]		751

The next lines start with the values.

IC50 [nM]	IC50 [1] [nM]	SMILES
	86	CS(=O)(=O)N1CCC(Oc2ccc(CN3CCCC(c4ccccc4)S3(=O)=O)c(F)c2)CC1 (single isomer, unassigned) [Example 3]
	37	CS(=O)(=O)N1CCC(Oc2ccc(CN3CCCC(c4ccccc4)S3(=O)=O)c(F)c2)CC1 (single isomer, unassigned) [Example 4]
	11	CC(=O)N1CCN(c2ccc(CN3CCCCC(c4ccccc4)S3(=O)=O)c(F)c2)CC1 (single isomer, unassigned) [Example 15, 1-{4-[4-(1,1-Dioxo-7-phenyl-[1,2]thiazepan-2-ylmethyl)-3-fluoro-phenyl]-piperazin-1-yl}-ethanone]
	32	CC(=O)N1CCN(c2ccc(CN3CCCCC(c4ccccc4)S3(=O)=O)c(F)c2)CC1 (single isomer, unassigned) [Example 16, 1-{4-[4-(1,1-Dioxo-7-phenyl-[1,2]thiazepan-2-ylmethyl)-3-fluoro-phenyl]-piperazin-1-yl}-ethanone]
	16	CC(=O)N1CCN(c2ccc(CN3[C@@H](C)CCC(c4ccccc4)S3(=O)=O)c(F)c2)CC1 (single isomer, unassigned) [Example 17]
	47	CC(=O)N1CCN(c2ccc(CN3[C@@H](C)CCC(c4ccccc4)S3(=O)=O)c(F)c2)CC1 (single isomer, unassigned) [Example 18]
	26	CC(=O)N1CCN(c2ccc(CN3[C@H](C)CCC(c4ccccc4)S3(=O)=O)c(F)c2)CC1 (single isomer, unassigned) [Example 20]
